Assay results taken from US9150590B2, “Process for the synthesis of rifaximin and a new pseudo-crystalline form of rifaximin obtained thereby” (Friulchem Spa, priority 2011, dated 2015).

Assay: polymorphic stability on drying or wetting (XRPD, Karl Fischer water content)
Assay type: physicochemical
Conditions: water content between 0.5% and 7% (Karl Fisher)
Text: Advantageously, the pseudo-crystalline rifaximin is stable at a water content comprised between 0.5% and 7%. In contrast to the rifaximin of the state of the art, transition from one polymorphic form to another is not observed when the water content varies between 0.5% and 7%. […] Water content is typically assessed according to the Karl Fisher method.
In the processes of the present invention, the absence of salts (methylaminopyridine hydrochloride and ascorbic acid salts) and the final pH of the solution yield a pseudo-crystalline form of rifaximin which is stable at various water contents comprised between 0.5% and 7%. This pseudo-crystalline form is stable upon drying or wetting with water and transition between different polymorphic forms depending on the water content is not observed. The rifaximin obtained by the process of the present invention is polymorphically stable.
Advantageously, the X-ray diffractogramm of the rifaximin according to the present invention is not modified when the water content varies between 0.5% and 7%.
The diffractograms have been carried out by using the SIEMENS D5000 instrument and under the following working conditions: • Radiation used: Kα of Copper (λ=1.5406 Å) • Tension of the generator: KV 35 • Current of the generator: 30 mA • Starting and final angular 2θ value: from 2.0° to 60.0°.

polymorphic stability (transition to another polymorphic form): stable
Compound: CO[C@H]1/C=C/O[C@@]2(C)Oc3c(C)c(O)c4c(O)c(c5c(nc6cc(C)ccn65)c4c3C2=O)NC(=O)/C(C)=C\C=C\[C@H](C)[C@H](O)[C@@H](C)[C@@H](O)[C@@H](C)[C@H](OC(C)=O)[C@@H]1C [pseudo-crystalline rifaximin, rifaximin]
